The text below walks through data of PubChem BioAssay (NCI).

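Following 48 hours of exposure in 96-well plates, responses at five concentrations were used to interpolate endpoints linearly. GI50 is the concentration that inhibits growth by half. TGI is the concentration that stops growth completely.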

Test systems include K-562 leukemia; SW-620 colon; SN12C renal; UACC-257 melanoma; NCI-H23 lung; HOP-62 NSCLC; CCRF-CEM leukemia; DMS 273 small cell lung; KM12 colon; HOP-92 NSCLC.
Holding throughout (experiment): NCI tumour cell line growth inhibition, 48 h

As to `CC(C(=O)n1nnc2ccccc21)N(c1ccccc1)c1ccccc1` (centres undefined), the TGI with K-562 leukemia, with SW-620 colon, with SN12C renal, in the experiment with UACC-257 melanoma, with NCI-H23 lung and with HOP-62 NSCLC was more than 100 µM in each case. Further, the TGI in the experiment on CCRF-CEM leukemia and with DMS 273 small cell lung was more than 100 µM each time.
For the molecule `Cc1cc(N(CCC#N)CCC#N)ccc1/C=C1N=C(/C=C/c2ccccc2)OC(=O)N\1`, the TGI with K-562 leukemia, with KM12 colon, with SW-620 colon, with SN12C renal, in the experiment on UACC-257 melanoma and in the experiment with NCI-H23 lung was more than 100 µM in each case. The TGI with HOP-62 NSCLC, in the experiment on CCRF-CEM leukemia and in the experiment on DMS 273 small cell lung was more than 100 µM throughout.
With `CCCCCCCCCCN=C(c1ccc(N(C)C)cc1)c1ccc(N(C)C)cc1`, the GI50 in the experiment on K-562 leukemia is 0.207 µM; in the experiment on KM12 colon, 0.414 µM; in the experiment with SW-620 colon, 0.425 µM; with SN12C renal, 0.83 µM; with UACC-257 melanoma it was 16.5 µM; with NCI-H23 lung, 1.58 µM. Further, the GI50 is 1.06 µM with HOP-62 NSCLC, 1.78 µM in the experiment on CCRF-CEM leukemia and 1.92 µM in the experiment with HOP-92 NSCLC. In addition, the TGI with K-562 leukemia was more than 100 µM; with KM12 colon, more than 75.8 µM; with SW-620 colon it was more than 100 µM; in the experiment on SN12C renal, 53.4 µM; in the experiment on UACC-257 melanoma, 66.2 µM; in the experiment on NCI-H23 lung, more than 75.4 µM. The TGI was 31.8 µM with HOP-62 NSCLC, more than 77.3 µM in the experiment with CCRF-CEM leukemia and 26.5 µM with HOP-92 NSCLC.
With `O=C(/C=C/c1ccccc1)CC(c1ccccc1)N1CCOCC1` (centres undefined), the GI50 in the experiment on K-562 leukemia is 3.4 µM; in the experiment on KM12 colon it was 1.99 µM; in the experiment with SW-620 colon it was 2.33 µM; in the experiment with SN12C renal, 4.25 µM; in the experiment with UACC-257 melanoma, 5.63 µM; in the experiment on NCI-H23 lung, 2 µM. The results for the GI50 with HOP-62 NSCLC, with CCRF-CEM leukemia and in the experiment with HOP-92 NSCLC were 3.25 µM, 2.42 µM and 3.59 µM, respectively. For the same molecule, the TGI worked out at 21.8 µM in the experiment on K-562 leukemia; 3.72 µM in the experiment on KM12 colon; 4.91 µM in the experiment with SW-620 colon; 14.8 µM with SN12C renal; 18.8 µM in the experiment with UACC-257 melanoma; 4.4 µM in the experiment with NCI-H23 lung. Besides, the TGI in the experiment on HOP-62 NSCLC was 11.9 µM; in the experiment with CCRF-CEM leukemia, 7.3 µM; in the experiment on HOP-92 NSCLC, 18.3 µM.
Turning to `Cc1cc2c(Br)cc(Br)c(O)c2nc1C(=O)c1ccccc1`, the TGI in the experiment on K-562 leukemia is 52.1 µM; in the experiment on KM12 colon, more than 100 µM; in the experiment on SW-620 colon it was more than 100 µM; in the experiment with SN12C renal, more than 100 µM; in the experiment with UACC-257 melanoma it was more than 65.7 µM; with NCI-H23 lung, 51.1 µM. Further, the TGI in the experiment with HOP-62 NSCLC was more than 31.6 µM; in the experiment on CCRF-CEM leukemia it was more than 100 µM; in the experiment with DMS 273 small cell lung, 42.3 µM.
For `c1ccc2nc3c(cc4ccccn43)nc2c1`, the GI50 was more than 100 µM in the experiment with K-562 leukemia; 26.6 µM in the experiment on KM12 colon; more than 100 µM in the experiment on SW-620 colon; 70 µM in the experiment with SN12C renal; more than 100 µM in the experiment on UACC-257 melanoma; 37.6 µM in the experiment on NCI-H23 lung. In addition, the GI50 in the experiment with HOP-62 NSCLC is 18.9 µM; in the experiment on CCRF-CEM leukemia, more than 100 µM; with HOP-92 NSCLC it was 30.9 µM. For the same molecule, the TGI in the experiment on K-562 leukemia, with KM12 colon, in the experiment on SW-620 colon, with SN12C renal, with UACC-257 melanoma and with NCI-H23 lung was more than 100 µM throughout. The figures for the TGI in the experiment on HOP-62 NSCLC, in the experiment with CCRF-CEM leukemia and in the experiment with HOP-92 NSCLC were 74.1 µM, more than 100 µM and more than 100 µM, respectively.
As to `CCCCCCCCCCCCCCCCCCNC(=O)[C@H]1CSC(c2cccs2)N1` (some centres undefined), the GI50 was 0.761 µM in the experiment on K-562 leukemia; 0.977 µM in the experiment on KM12 colon; 0.881 µM in the experiment on SW-620 colon; 0.885 µM in the experiment on SN12C renal; 1.25 µM in the experiment with UACC-257 melanoma; 1.8 µM in the experiment on NCI-H23 lung. Also, the results for the GI50 in the experiment with HOP-62 NSCLC, in the experiment on CCRF-CEM leukemia and with HOP-92 NSCLC were 0.959 µM, 0.372 µM and 2.38 µM, respectively. The TGI with K-562 leukemia came to 2.14 µM; with KM12 colon it was 1.98 µM; in the experiment with SW-620 colon, 1.91 µM; with SN12C renal it was 1.76 µM; with UACC-257 melanoma, 3.12 µM; with NCI-H23 lung, 17.7 µM. In addition, the results for the TGI in the experiment on HOP-62 NSCLC, with CCRF-CEM leukemia and in the experiment on HOP-92 NSCLC were 1.71 µM, 2.03 µM and 14.2 µM, respectively.
`NC(=O)C1(N2CCCCC2)CCN(CCCC(=O)c2ccc(F)cc2)CC1`: the GI50 with K-562 leukemia was 0.28 µM; with KM12 colon it was 1.39 µM; in the experiment on SW-620 colon it was 0.173 µM; in the experiment with SN12C renal it was 5.24 µM; in the experiment with NCI-H23 lung, 1.08 µM; in the experiment on HOP-62 NSCLC, 3.41 µM. In addition, the GI50 in the experiment on CCRF-CEM leukemia was 0.121 µM; in the experiment on HOP-92 NSCLC, 0.17 µM. The TGI in the experiment on K-562 leukemia was more than 100 µM; in the experiment on KM12 colon, 67.6 µM; with SW-620 colon it was more than 100 µM; in the experiment with SN12C renal, more than 100 µM; with UACC-257 melanoma, more than 100 µM; in the experiment on NCI-H23 lung, more than 20.1 µM. In addition, the TGI was more than 100 µM with HOP-62 NSCLC and 51.4 µM in the experiment on HOP-92 NSCLC.
On to `CSc1c(C)c(C)nn1-c1ccccc1`, for which the TGI with K-562 leukemia, with KM12 colon, in the experiment on SW-620 colon, in the experiment on SN12C renal, with UACC-257 melanoma and in the experiment on NCI-H23 lung was more than 100 µM throughout. Further, the TGI with CCRF-CEM leukemia and with DMS 273 small cell lung was more than 100 µM each time.
As for `CC1CCCc2c1nn(C(=O)/C=C(\N)c1ccccc1)c2N` (centres undefined), the GI50 with K-562 leukemia was 4.99 µM; in the experiment with KM12 colon, 5.97 µM; in the experiment on SW-620 colon it was 6.71 µM; in the experiment with SN12C renal, 8.13 µM; in the experiment on UACC-257 melanoma, 25.6 µM; in the experiment with NCI-H23 lung it was 5.5 µM. In addition, the GI50 in the experiment with HOP-62 NSCLC was 8.49 µM; with CCRF-CEM leukemia, 6.8 µM; in the experiment on HOP-92 NSCLC, 10.3 µM. In addition, the TGI with K-562 leukemia is more than 100 µM; in the experiment with KM12 colon, more than 100 µM; with SW-620 colon, more than 100 µM; with SN12C renal it was more than 100 µM; in the experiment with UACC-257 melanoma it was more than 100 µM; with NCI-H23 lung, 92.9 µM. In addition, the results for the TGI in the experiment with HOP-62 NSCLC, in the experiment with CCRF-CEM leukemia and with HOP-92 NSCLC were more than 100 µM, more than 100 µM and 95.7 µM, respectively.
Take `O=C1C(SCCO)=C(SCCO)C(=O)c2ccccc21`: the TGI with K-562 leukemia came to 3.87 µM; with KM12 colon it was 3.76 µM; in the experiment on SW-620 colon, 1.47 µM; in the experiment with SN12C renal it was 3.06 µM; in the experiment with UACC-257 melanoma, 2.59 µM; with NCI-H23 lung, 2.44 µM. In addition, the TGI in the experiment on HOP-62 NSCLC stood at 3.77 µM; with CCRF-CEM leukemia it was 4.8 µM; with HOP-92 NSCLC it was 2.42 µM.
